In ChEMBL document CHEMBL1134620, “Synthesis of potential antidipsotropic isoflavones: inhibitors of the mitochondrial monoamine oxidase-aldehyde dehydrogenase pathway” (J Med Chem, 2001):

Columns and labels:
[1] = target: Monoamine oxidase (Mesocricetus auratus)
[2] = tested on: Aldehyde dehydrogenase, mitochondrial (Mesocricetus auratus); assay: Inhibition of hamster liver aldehyde dehydrogenase ALDH-2; No inhibition uM
[3] = tested on: Monoamine oxidase (Mesocricetus auratus); assay: Inhibition of hamster liver mitochondrial monoamine oxidase MAO
[4] = target: Aldehyde dehydrogenase, mitochondrial (Mesocricetus auratus); assay: Inhibition of hamster liver aldehyde dehydrogenase ALDH-2

Row | IC50 [1] | NI [2] | NI [3] | SMILES | also measured
1 | 7 µM | – | – | O=C(O)CCCCCOc1ccc2c(=O)cc(-c3ccc(O)cc3)oc2c1 | –
2 | > 9 µM | – | – | CCOC(=O)CCCCOc1ccc2c(=O)c(-c3ccc(O)cc3)coc2c1 | –
3 | – | No inhibition | No inhibition | O=c1c(-c2ccc(OCCCCCCCCCO)cc2)coc2cc(OCCCCCCCCCO)ccc12 | –
4 | >> 9 uM | – | – | CCCCC(Oc1ccc2c(=O)c(-c3ccc(O)cc3)coc2c1)C(=O)OCC (stereo not given) | –
5 | 6.5 µM | – | – | O=C(O)CCCCCCCOc1ccc2c(=O)c(-c3ccc(O)cc3)coc2c1 | –
6 | – | – | – | O=c1c(-c2ccc(O)cc2)coc2cc(OCCCBr)ccc12 | IC50 [4]: 0.26 µM
7 | – | No inhibition | No inhibition | CC(C)Oc1ccc(-c2coc3cc(OC(C)C)ccc3c2=O)cc1 | –
8 | – | No inhibition | No inhibition | COc1cc2ccc(=O)oc2cc1OC [SCOPARONE] | –
9 | – | No inhibition | No inhibition | CCOC(=O)C(C)Oc1ccc(-c2coc3cc(OC(C)C(=O)OCC)ccc3c2=O)cc1 (stereo not given) | –
10 | – | No inhibition | No inhibition | CCCCCCCCCCCCOc1ccc(-c2coc3cc(OCCCCCCCCCCCC)ccc3c2=O)cc1 | –
11 | >> 9 uM | – | – | CCCCCCC(Oc1ccc2c(=O)c(-c3ccc(O)cc3)coc2c1)C(=O)OCC (stereo not given) | –
12 | 5 µM | – | – | O=C(O)CCCCOc1ccc2c(=O)c(-c3ccc(O)cc3)coc2c1 | –
13 | 5 µM | – | – | C=CCCCCOc1ccc2c(=O)c(-c3ccc(O)cc3)coc2c1 | –
14 | – | – | – | O=c1c(-c2ccc(O)cc2)coc2cc(OCCCCBr)ccc12 | IC50 [4]: 0.27 µM
15 | 5.3 µM | – | – | CCOC(=O)CCCCCOc1ccc2c(=O)c(-c3ccc(O)cc3)coc2c1 | –
16 | – | No inhibition | No inhibition | CCCCCCOc1ccc(-c2coc3cc(OCCCCCC)ccc3c2=O)cc1 | –
17 | 0.2 µM | – | – | CC(C)Oc1ccc2c(=O)c(-c3ccc(O)cc3)coc2c1 | –
18 | >> 9 uM | – | – | O=C(O)COc1ccc2c(=O)c(-c3ccc(O)cc3)coc2c1 | –
19 | > 9 µM | – | – | O=c1c(-c2ccc(O)cc2)coc2cc(OCCCCCCO)ccc12 | –
20 | > 9 µM | – | – | O=c1c(-c2ccc(O)cc2)coc2cc(OCCCCCCCCCO)ccc12 | –
21 | – | No inhibition | No inhibition | CCOC(=O)CCCCCOc1ccc(-c2coc3cc(OCCCCCC(=O)OCC)ccc3c2=O)cc1 | –
22 | – | No inhibition | No inhibition | C=CCCCCOc1ccc(-c2coc3cc(OCCCCC=C)ccc3c2=O)cc1 | –
23 | – | – | – | O=c1c(-c2ccc(O)cc2)coc2cc(OCCCCCCBr)ccc12 | IC50 [4]: 0.3 µM
24 | – | No inhibition | No inhibition | CCOC(=O)CCCCOc1ccc(-c2coc3cc(OCCCCC(=O)OCC)ccc3c2=O)cc1 | –
25 | >> 9 uM | – | – | NCCCCCCOc1ccc2c(=O)c(-c3ccc(O)cc3)coc2c1 | –
26 | > 9 µM | – | – | NCCCCOc1ccc2c(=O)c(-c3ccc(O)cc3)coc2c1 | –
